The target in this experiment is T1, Phormidium APC (allophycocyanin) (Phormidium rubidum, UniProt A0A078K1U6+A0A078K4M9).
T1 construct: gene apcA; native purification from the cyanobacterium; no tags; alpha 18064 Da and beta 18011 Da with chromophore; trimer of alpha-beta monomers (118 kDa); N-methylasparagine in beta; GenBank entries partial (alpha 9-161, beta 1-155), corrected in structure: alpha N10K, R49C, D145N, beta E35K
Description: X-ray crystallography, […] A. The format is binding. The settings on record: covalent; one chromophore on Cys-81 of alpha and one on Cys-81 of beta; alpha-chromophore site also lined by beta residues in the trimer; crystals pH 8.5, PEG 6000.

This note sets out measurements from paper PMC4414346, “Crystal Structure of Allophycocyanin from Marine Cyanobacterium Phormidium sp. A09DM” (PLoS ONE, 2015).

`C/C=C1/C(=C/c2[nH]c(/C=C3N=C(/C=C4\NC(=O)C(CC)=C4C)C(C)=C\3CCC(=O)O)c(CCC(=O)O)c2C)NC(=O)[C@@H]1C` [phycocyanobilin]: the “X-ray crystallography, 2.51 A” value is reported as “One PCB chromophore is covalently bonded to the conserved Cys-81 of α-subunit (α-chromophore)”.
